Reference: patent US10550105B2 (Ribon Therapeutics Inc., priority 2018, dated 2020)

Molecular target: PARP7 (Homo sapiens (Human), UniProt Q7Z3E1)
Experiment: Enzymatic assay for inhibition of PARP7: TR-FRET displacement of biotinylated Probe A from the TIPARP active site
Assay type: binding
Details: Table A-1
Summary of the method: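 TR-FRET, ex 320 nm / em 615 and 665 nm. Signal ratio reflects complex formation.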

Chain of PARP7 (Q7Z3E1 whole entry): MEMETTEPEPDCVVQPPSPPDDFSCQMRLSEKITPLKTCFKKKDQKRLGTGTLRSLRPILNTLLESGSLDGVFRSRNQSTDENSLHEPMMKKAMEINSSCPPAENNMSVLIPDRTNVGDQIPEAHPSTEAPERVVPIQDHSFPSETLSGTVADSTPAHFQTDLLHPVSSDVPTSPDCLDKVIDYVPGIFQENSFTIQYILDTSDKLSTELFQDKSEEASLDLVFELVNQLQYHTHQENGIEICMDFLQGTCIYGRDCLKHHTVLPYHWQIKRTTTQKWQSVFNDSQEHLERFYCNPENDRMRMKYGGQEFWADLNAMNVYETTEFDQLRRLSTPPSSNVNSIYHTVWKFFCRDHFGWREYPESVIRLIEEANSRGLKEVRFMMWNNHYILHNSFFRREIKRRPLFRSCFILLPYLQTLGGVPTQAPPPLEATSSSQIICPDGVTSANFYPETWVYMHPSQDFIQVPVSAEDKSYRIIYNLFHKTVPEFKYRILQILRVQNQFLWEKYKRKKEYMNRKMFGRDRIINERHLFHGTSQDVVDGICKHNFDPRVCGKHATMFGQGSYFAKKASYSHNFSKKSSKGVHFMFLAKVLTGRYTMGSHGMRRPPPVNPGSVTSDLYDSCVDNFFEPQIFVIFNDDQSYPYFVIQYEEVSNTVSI

Row | SMILES | IC50
1 | N#Cc1ccc(N2CCN(C(=O)CCNC[C@H]3c4ccccc4CN3c3cn[nH]c(=O)c3C(F)(F)F)CC2)nc1 [Example 146B, 6-[4-[3-([[(1R)-2-[6-oxo-5-(trifluoromethyl)-1,6-dihydropyridazin-4-yl]-2,3-dihydro-1H-isoindo1-1-yl]methyl]amino)propanoyl]piperazin-1-yl]pyridine-3-carbonitrile] | < 100 nM
2 | O=C(C[C@@H]1CC[C@@H]([C@@H]2CCCN2c2cn[nH]c(=O)c2C(F)(F)F)O1)N1CCN(c2ncc(Cl)cn2)CC1 [Example 147A, 5-[(2S)-2-[(2S,5S)-5-[2-[4-(5-chloropyrimidin-2-yl)piperazin-1-yl]-2-oxoethyl]oxolan-2-yl]pyrrolidin-1-yl]-4-(trifluoromethyl)-2,3-dihydropyridazin-3-one] | < 100 nM
3 | O=C(C[C@H]1CC[C@@H]([C@@H]2CCCN2c2cn[nH]c(=O)c2C(F)(F)F)O1)N1CCN(c2ncc(Cl)cn2)CC1 [Example 147B, 5-[(2S)-2-[(2S,5R)-5-[2-[4-(5-chloropyrimidin-2-yl)piperazin-1-yl]-2-oxoethyl]oxolan-2-yl]pyrrolidin-1-yl]-4-(trifluoromethyl)-2,3-dihydropyridazin-3-one] | < 100 nM
4 | O=C(C[C@H]1CC[C@H]([C@@H]2CCCN2c2cn[nH]c(=O)c2C(F)(F)F)O1)N1CCN(c2ncc(Cl)cn2)CC1 [Example 147D, 5-[(2S)-2-[(2R,5R)-5-[2-[4-(5-chloropyrimidin-2-yl)piperazin-1-yl]-2-oxoethyl]oxolan-2-yl]pyrrolidin-1-yl]-4-(trifluoromethyl)-2,3-dihydropyridazin-3-one] | < 100 nM
5 | O=C(C[C@@H]1CC[C@@H]([C@@H]2CCCN2c2cn[nH]c(=O)c2C(F)(F)F)O1)N1CCN(c2ccc(Cl)cn2)CC1 [Example 148A, 5-[(2S)-2-[(2S,5S)-5-[2-[4-(5-chloropyridin-2-yl)piperazin-1-yl]-2-oxoethyl]oxolan-2-yl]pyrrolidin-1-yl]-4-(trifluoromethyl)-2,3-dihydropyridazin-3-one] | < 100 nM
6 | O=C(C[C@@H]1CC[C@H]([C@@H]2CCCN2c2cn[nH]c(=O)c2C(F)(F)F)O1)N1CCN(c2ccc(Cl)cn2)CC1 [Example 148B, 5-[(2S)-2-[(2R,5S)-5-[2-[4-(5-chloropyridin-2-yl)piperazin-1-yl]-2-oxoethyl]oxolan-2-yl]pyrrolidin-1-yl]-4-(trifluoromethyl)-2,3-dihydropyridazin-3-one] | 100 to 1000 nM
7 | O=C(C[C@H]1CC[C@H]([C@@H]2CCCN2c2cn[nH]c(=O)c2C(F)(F)F)O1)N1CCN(c2ccc(Cl)cn2)CC1 [Example 148C, 5-[(2S)-2-[(2R,5R)-5-[2-[4-(5-chloropyridin-2-yl)piperazin-1-yl]-2-oxoethyl]oxolan-2-yl]pyrrolidin-1-yl]-4-(trifluoromethyl)-2,3-dihydropyridazin-3-one] | < 100 nM
8 | O=C(C[C@H]1CC[C@@H]([C@@H]2CCCN2c2cn[nH]c(=O)c2C(F)(F)F)O1)N1CCN(c2ccc(Cl)cn2)CC1 [Example 148D, 5-[(2S)-2-[(2S,5R)-5-[2-[4-(5-chloropyridin-2-yl)piperazin-1-yl]-2-oxoethyl]oxolan-2-yl]pyrrolidin-1-yl]-4-(trifluoromethyl)-2,3-dihydropyridazin-3-one] | < 100 nM
9 | O=C(C[C@@H]1CC[C@@H]([C@@H]2CCCN2c2cn[nH]c(=O)c2C(F)(F)F)O1)N1CCN(c2ncc(C(F)(F)F)cn2)CC1 [Example 149A, 5-[(2S)-2-[(2S,5S)-5-(2-oxo-2-[4-[5-(trifluoromethyl)pyrimidin-2-yl]piperazin-1-yl]ethyl)oxolan-2-yl]pyrrolidin-1-yl]-4-(trifluoromethyl)-2,3-dihydropyridazin-3-one] | < 100 nM
10 | O=C(C[C@H]1CC[C@@H]([C@@H]2CCCN2c2cn[nH]c(=O)c2C(F)(F)F)O1)N1CCN(c2ncc(C(F)(F)F)cn2)CC1 [Example 149B, 5-[(2S)-2-[(2S,5R)-5-(2-oxo-2-[4-[5-(trifluoromethyl)pyrimidin-2-yl]piperazin-1-yl]ethyl)oxolan-2-yl]pyrrolidin-1-yl]-4-(trifluoromethyl)-2,3-dihydropyridazin-3-one] | < 100 nM
11 | O=C(C[C@@H]1CC[C@H]([C@@H]2CCCN2c2cn[nH]c(=O)c2C(F)(F)F)O1)N1CCN(c2ncc(C(F)(F)F)cn2)CC1 [Example 149C, 5-[(2S)-2-[(2R,5S)-5-(2-oxo-2-[4-[5-(trifluoromethyl)pyrimidin-2-yl]piperazin-1-yl]ethyl)oxolan-2-yl]pyrrolidin-1-yl]-4-(trifluoromethyl)-2,3-dihydropyridazin-3-one] | < 100 nM
12 | O=C(C[C@H]1CC[C@H]([C@@H]2CCCN2c2cn[nH]c(=O)c2C(F)(F)F)O1)N1CCN(c2ncc(C(F)(F)F)cn2)CC1 [Example 149D, 5-[(2S)-2-[(2R,5R)-5-(2-oxo-2-[4-[5-(trifluoromethyl)pyrimidin-2-yl]piperazin-1-yl]ethyl)oxolan-2-yl]pyrrolidin-1-yl]-4-(trifluoromethyl)-2,3-dihydropyridazin-3-one] | < 100 nM
13 | O=c1[nH]ncc(N2Cc3ccc(OC4CCNCC4)cc3C2)c1C(F)(F)F [Example 150, 5-[5-(Piperidin-4-yloxy)-2,3-dihydro-1H-isoindol-2-yl]-4-(trifluoromethyl)-2,3-dihydropyridazin-3-one] | < 100 nM
14 | O=c1[nH]ncc(N2Cc3ccccc3C2)c1Cl [Example 151, 4-Chloro-5-(isoindolin-2-yl)pyridazin-3(2H)-one] | 100 to 1000 nM
15 | O=c1[nH]ncc(N2Cc3ccncc3C2)c1Cl [Example 152, 4-Chloro-5-(1,3-dihydro-2H-pyrrolo[3,4-c]pyridin-2-yl)pyridazin-3(2H)-one] | 100 to 1000 nM
16 | COc1cccc2c1CN(c1cn[nH]c(=O)c1Cl)C2 [Example 153, 4-Chloro-5-(4-methoxyisoindolin-2-yl)pyridazin-3(2H)-one] | 100 to 1000 nM
17 | O=c1[nH]ncc(N2Cc3cccnc3C2)c1Cl [Example 154, 4-Chloro-5-(5,7-dihydro-6H-pyrrolo[3,4-b]pyridin-6-yl)pyridazin-3(2H)-one] | 100 to 1000 nM
18 | COc1ccc2c(c1)CN(c1cn[nH]c(=O)c1Cl)C2 [Example 155, 4-Chloro-5-(5-methoxyisoindolin-2-yl)pyridazin-3(2H)-one] | 100 to 1000 nM
19 | COCCOc1ccc2c(c1)CN(c1cn[nH]c(=O)c1Cl)C2 [Example 156, 4-Chloro-5-(5-(2-methoxyethoxy)isoindolin-2-yl)pyridazin-3(2H)-one] | 100 to 1000 nM
20 | O=c1[nH]ncc(N2Cc3ccc(OCCO)cc3C2)c1Cl [Example 157, 4-Chloro-5-(5-(2-hydroxyethoxy)isoindolin-2-yl)pyridazin-3(2H)-one] | 100 to 1000 nM
21 | O=c1[nH]ncc(N2Cc3ccc(OC4CCNCC4)cc3C2)c1Cl [Example 158, 4-Chloro-5-(5-(piperidin-4-yloxy)isoindolin-2-yl)pyridazin-3(2H)-one] | 100 to 1000 nM
22 | Cc1c(N2Cc3ccccc3C2)cn[nH]c1=O [Example 159, 5-(Isoindolin-2-yl)-4-methylpyridazin-3(2H)-one] | ≥ 1000 nM
23 | O=c1[nH]ncc(N2Cc3ccccc3C2)c1C(F)(F)F [Example 160, 5-(Isoindolin-2-yl)-4-(trifluoromethyl)pyridazin-3(2H)-one] | < 100 nM
24 | O=c1[nH]ncc(N2Cc3cccc(OCCO)c3C2)c1Cl [Example 161, 4-Chloro-5-(4-(2-hydroxyethoxy)isoindolin-2-yl)pyridazin-3(2H)-one] | 100 to 1000 nM
